Experimental data: US7345070B2, “Peroxisome proliferator activated receptor agonists” (Eli Lilly and Company, priority 2000, dated 2008)

Assays:
[1] = molecular target: T1, huPPARγ (Homo sapiens, UniProt P37231); experiment: Cotransfection assay in CV-1 cells, huPPARγ; type: cell-based; parameters: Appropriate PPARs and RXRα were constitutively expressed using plasmids containing the CMV promoter; expressed in transfected cells; host or cells: CV-1 cells; conditions: AOX PPRE luciferase reporter, relative to PPARγ agonist reference molecule, read-out: huPPARγ CTF Efficacy
T1 sequence (P37231 1-505): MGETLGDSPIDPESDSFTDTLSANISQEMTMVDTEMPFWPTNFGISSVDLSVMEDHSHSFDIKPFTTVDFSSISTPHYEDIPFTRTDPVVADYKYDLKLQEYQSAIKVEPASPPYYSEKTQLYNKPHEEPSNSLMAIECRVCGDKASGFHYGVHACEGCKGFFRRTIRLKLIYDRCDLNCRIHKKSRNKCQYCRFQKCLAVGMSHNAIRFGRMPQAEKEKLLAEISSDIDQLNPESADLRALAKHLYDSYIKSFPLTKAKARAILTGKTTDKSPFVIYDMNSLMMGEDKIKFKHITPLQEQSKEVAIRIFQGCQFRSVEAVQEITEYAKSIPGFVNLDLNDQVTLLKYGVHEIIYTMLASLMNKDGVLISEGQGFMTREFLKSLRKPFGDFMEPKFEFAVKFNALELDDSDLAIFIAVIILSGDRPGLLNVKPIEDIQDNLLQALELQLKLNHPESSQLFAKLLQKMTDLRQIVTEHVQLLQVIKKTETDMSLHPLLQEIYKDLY
T1 sequence (P19793 1-462 partner): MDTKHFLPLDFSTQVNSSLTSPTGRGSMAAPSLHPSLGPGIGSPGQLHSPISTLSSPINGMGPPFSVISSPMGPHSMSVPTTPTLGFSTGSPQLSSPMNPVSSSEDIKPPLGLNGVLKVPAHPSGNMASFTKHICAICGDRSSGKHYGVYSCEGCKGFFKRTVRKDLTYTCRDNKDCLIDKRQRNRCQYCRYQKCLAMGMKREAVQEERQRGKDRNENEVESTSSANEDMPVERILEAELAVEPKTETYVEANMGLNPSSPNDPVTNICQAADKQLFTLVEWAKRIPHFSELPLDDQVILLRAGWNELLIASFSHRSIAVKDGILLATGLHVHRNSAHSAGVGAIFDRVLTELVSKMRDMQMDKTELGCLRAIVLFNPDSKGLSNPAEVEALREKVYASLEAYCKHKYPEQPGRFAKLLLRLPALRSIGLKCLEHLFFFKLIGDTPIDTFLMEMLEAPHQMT
Method: (§1) DNA-dependent binding (ABCD binding) was carried out using SPA technology with PPAR receptors. Tritium-labeled PPARα and PPARγ agonists were used as radioligands for generating displacement curves and IC50 values with compounds of the invention. Cotransfection assays were carried out in CV-1 cells. The reporter plasmid contained an acylCoA oxidase (AOX) PPRE and TK promoter upstream of the luciferase reporter cDNA. Appropriate PPARs and RXRα were constitutively expressed using plasmids containing the CMV promoter. […] In order to eliminate such interference, a GAL4 chimeric system was used in which the DNA binding domain of the transfected PPAR was replaced by that of GAL4, and the GAL4 response element was utilized in place of the AOX PPRE. Cotransfection efficacy was determined relative to PPARα agonist and PPARγ agonist reference molecules. Efficacies were determined by computer fit to a concentration-response curve, or in some cases at a single high concentration of agonist (10 μM). For binding or cotransfection studies with receptors other than PPARs, similar assays were carried out using appropriate ligands, receptors, reporter constructs, etc., for that particular receptor.
(§2) These studies were carried out to evaluate the ability of compounds of the invention to bind to and/or activate various nuclear transcription factors, particularly huPPARα (“hu” indicates “human”) and huPPARγ. These studies provide in vitro data concerning efficacy and selectivity of compounds of the invention. Furthermore, binding and cotransfection data for compounds of the invention were compared with corresponding data for marketed compounds that act on either huPPARα or huPPARγ.

[2] = molecular target: T2, huPPARα (Homo sapiens, UniProt Q07869); experiment: DNA-dependent binding (ABCD binding) using SPA technology, huPPARα; conditions: SPA displacement of tritium-labeled PPARα agonist radioligand
T2 sequence (Q07869 1-468): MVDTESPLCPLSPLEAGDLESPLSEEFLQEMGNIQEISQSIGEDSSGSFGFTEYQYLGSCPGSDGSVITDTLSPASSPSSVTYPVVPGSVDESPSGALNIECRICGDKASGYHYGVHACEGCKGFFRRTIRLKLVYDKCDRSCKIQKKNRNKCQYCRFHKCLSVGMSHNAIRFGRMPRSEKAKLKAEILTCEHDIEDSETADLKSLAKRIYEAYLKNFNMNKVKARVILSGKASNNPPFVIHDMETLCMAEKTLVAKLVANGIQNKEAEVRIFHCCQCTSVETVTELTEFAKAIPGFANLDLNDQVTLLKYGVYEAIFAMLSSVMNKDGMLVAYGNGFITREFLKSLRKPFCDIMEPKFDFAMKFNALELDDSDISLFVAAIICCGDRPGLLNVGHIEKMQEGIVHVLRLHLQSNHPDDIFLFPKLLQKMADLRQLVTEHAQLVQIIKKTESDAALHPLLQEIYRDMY
T2 sequence (P19793 1-462 partner): T1 sequence (P19793 1-462 partner)
Method: as §1, §2

| SMILES | Emax [1] | IC50 [2] |
| --- | --- | --- |
| Cc1oc(-c2cccs2)nc1CCOc1ccc(CC(C)(Oc2ccc(C(C)(C)C)cc2)C(=O)O)cc1 (stereo not drawn) [Example 17, 2-Methyl-3-{4-[2-(5-methyl-2-thiophen-2-yl-oxazol-4-yl)-ethoxy]-phenyl}-2-(4-tert-butylphenoxy)-propionic acid] | 105% | 68 nM |
| Cc1oc(C2CCCCC2)nc1CCOc1ccc(CC(C)(Oc2ccc(C(C)(C)C)cc2)C(=O)O)cc1 (stereo not drawn) [Example 18, 2-Methyl-3-(4-{2-[5-methyl-2-cyclohexylyl-oxazol-4-yl]-ethoxy}-phenyl)-2-(4-tert-butylphenoxy)-propionic acid] | 112% | 72 nM |
| COc1ccc(OC(C)(Cc2ccc(OCCc3nc(-c4cccs4)oc3C)cc2)C(=O)O)cc1 (stereo not drawn) [Example 19, 2-Methyl-3-{4-[2-(5-methyl-2-thiophen-2-yl-oxazol-4-yl)-ethoxy]-phenyl}-2-(4-methoxyphenoxy)-propionic acid] | 23% | 85 nM |
| Cc1oc(-c2cccs2)nc1CCOc1ccc(CC(C)(Oc2cccc(F)c2)C(=O)O)cc1 (stereo not drawn) [Example 22, 2-(3-Fluoro-phenoxy)-2-methyl-3-{4-[2-(5-methyl-2-thiophen-2-yl-oxazol-4-yl)-ethoxy]-phenyl}-propionic acid] | 12% | 70 nM |
| Cc1oc(-c2cccs2)nc1CCOc1ccc(CC(C)(Oc2cccc(C(C)(C)C)c2)C(=O)O)cc1 (stereo not drawn) [Example 25, 2-(3-tert-Butyl-phenoxy)-2-methyl-3-{4-[2-(5-methyl-2-thiophen-2-yl-oxazol-4-yl)-ethoxy]-phenyl}-propionic acid] | 106% | 73 nM |
| Cc1oc(-c2cccs2)nc1CCOc1ccc(CC(C)(Oc2ccccc2F)C(=O)O)cc1 (stereo not drawn) [Example 27, 2-(2-Fluoro-phenoxy)-2-methyl-3-{4-[2-(5-methyl-2-thiophen-2-yl-oxazol-4-yl)-ethoxy]-phenyl}-propionic acid] | 15% | 75 nM |
| Cc1oc(-c2ccccc2)nc1CCOc1ccc(CC(C)(Oc2ccc(Cl)cc2)C(=O)O)cc1 (stereo not drawn) [Example 29, 2-(4-Chloro-phenoxy)-2-methyl-3-{4-[2-(5-methyl-2-phenyl-oxazol-4-yl)-ethoxy]-phenyl}-propionic acid] | 82% | 116 nM |
| Cc1oc(C2CCCCC2)nc1CCOc1ccc(CC(C)(Oc2ccc(C3CCCCC3)cc2)C(=O)O)cc1 (stereo not drawn) [Example 34, 3-{4-[2-(2-Cyclohexyl-5-methyl-oxazol-4-yl)-ethoxy]-phenyl}-2-(4-cyclohexyl-phenoxy)-2-methyl-propionic acid] | 76% | 91 nM |
| Cc1ccc(OC(C)(Cc2ccc(OCCc3nc(C4CCCCC4)oc3C)cc2)C(=O)O)cc1C (stereo not drawn) [Example 35, 3-{4-[2-(2-Cyclohexyl-5-methyl-oxazol-4-yl)-ethoxy]-phenyl}-2-(3,4-dimethyl-phenoxy)-2-methyl-propionic acid] | 21% | 66 nM |
| Cc1ccc(OC(C)(Cc2ccc(OCCc3nc(-c4cccs4)oc3C)cc2)C(=O)O)cc1C (stereo not drawn) [Example 36, 2-(3,4-Dimethyl-phenoxy)-2-methyl-3-{4-[2-(5-methyl-2-thiophen-2-yl-oxazol-4-yl)-ethoxy]-phenyl}-propionic acid] | 21% | 72 nM |
| Cc1ccc(OC(C)(Cc2ccc(OCCc3nc(C4CCCCC4)oc3C)cc2)C(=O)O)cc1 (stereo not drawn) [Example 41, 3-{4-[2-(2-Cyclohexyl-5-methyl-oxazol-4-yl)-ethoxy]-phenyl}-2-methyl-2-p-tolyloxy-propionic acid] | 11% | 66 nM |
| Cc1oc(C2CCCCC2)nc1CCOc1ccc(CC(C)(Oc2ccc(OC(F)(F)F)cc2)C(=O)O)cc1 (stereo not drawn) [Example 44, 3-{4-[2-(2-Cyclohexyl-5-methyl-oxazol-4-yl)-ethoxy]-phenyl}-2-methyl-2-(4-trifluoromethoxy-phenoxy)-propionic acid] | 73% | 157 nM |

The next compounds have a lower IC50 [2] than those just listed; values first:

| Emax [1] | IC50 [2] | SMILES |
| --- | --- | --- |
| 75% | 63 nM | Cc1oc(-c2cccc(Br)c2)nc1CCOc1ccc(CC(C)(Oc2ccccc2)C(=O)O)cc1 (stereo not drawn) [Example 8, 3-(4-{2-[2-(3-Bromophenyl)-5-methyloxazol-4-yl]ethoxy}phenyl)-2-methyl-2-phenoxypropionic acid] |
| 73% | 41 nM | Cc1oc(C2(C)CCCCC2)nc1CCOc1ccc(CC(C)(Oc2ccccc2)C(=O)O)cc1 (stereo not drawn) [Example 9, 2-Methyl-3-(4-{2-[5-methyl-2-(1-methylcyclohexyl)oxazol-4-yl]ethoxy}phenyl)-2-phenoxypropionic acid] |
| 17% | 63 nM | Cc1oc(C2CCCCC2)nc1CCOc1ccc(CC(C)(Oc2cccc(F)c2)C(=O)O)cc1 (stereo not drawn) [Example 23, 2-(3-Fluoro-phenoxy)-2-methyl-3-{4-[2-(5-methyl-2-cyclohexyl-oxazol-4-yl)-ethoxy]-phenyl}-propionic acid] |
| 110% | 50 nM | Cc1ccc(OC(C)(Cc2ccc(OCCc3nc(-c4cccs4)oc3C)cc2)C(=O)O)cc1 (stereo not drawn) [Example 40, 2-Methyl-3-{4-[2-(5-methyl-2-thiophen-2-yl-oxazol-4-yl)-ethoxy]-phenyl}-2-p-tolyloxy-propionic acid] |
| 48% | 64 nM | Cc1oc(-c2cccs2)nc1CCOc1ccc(CC(C)(Oc2ccc(C(F)(F)F)cc2)C(=O)O)cc1 (stereo not drawn) [Example 51, 2-Methyl-3-{4-[2-(5-methyl-2-thiophen-2-yl-oxazol-4-yl)-ethoxy]-phenyl}-2-(4-trifluoromethyl-phenoxy)-propionic acid] |
| 61% | 62 nM | Cc1oc(C2CCCCC2)nc1CCOc1ccc(CC(C)(Oc2ccc(C(F)(F)F)cc2)C(=O)O)cc1 (stereo not drawn) [Example 52, 3-{4-[2-(2-Cyclohexyl-5-methyl-oxazol-4-yl)-ethoxy]-phenyl}-2-methyl-2-(4-trifluoromethyl-phenoxy)-propionic acid] |
| 41% | 60 nM | Cc1oc(C2CCCCC2)nc1CCOc1ccc(CC(C)(Oc2ccc(F)c(F)c2)C(=O)O)cc1 (stereo not drawn) [Example 58, 3-{4-[2-(2-Cyclohexyl-5-methyl-oxazol-4-yl)-ethoxy]-phenyl}-2-(3,4-difluoro-phenoxy)-2-methyl-propionic acid] |
| 12% | 64 nM | Cc1cccc(OC(C)(Cc2ccc(OCCc3nc(-c4cccs4)oc3C)cc2)C(=O)O)c1 (stereo not drawn) [Example 61, 2-Methyl-3-{4-[2-(5-methyl-2-thiophen-2-yl-oxazol-4-yl)-ethoxy]-phenyl}-2-m-tolyloxy-propionic acid] |
| 35% | 58 nM | Cc1cccc(OC(C)(Cc2ccc(OCCc3nc(C4CCCCC4)oc3C)cc2)C(=O)O)c1 (stereo not drawn) [Example 62, 3-{4-[2-(2-Cyclohexyl-5-methyl-oxazol-4-yl)-ethoxy]-phenyl}-2-methyl-2-m-tolyloxy-propionic acid] |
